The source made the active and inactive calls. The calls are words filed in the database; no cut-off is given here.

Data on six compounds can be found in ChEMBL document CHEMBL1148084, “Novel naphthoquinones from Conospermum incurvum” (J Nat Prod, 1994).

For the experiment, the system named is Human immunodeficiency virus 1. In words: Antiviral activity against HIV1 in human cells by XTT assay. Type of experiment: functional, organism-based.

`COC1=C(C)C(=O)c2ccc3c(c2C1=O)C=C[C@@](C)(CCC=C(C)C)O3`: the outcome was inactive.

Regarding `CC(C)=CCC[C@]1(C)C=Cc2c(ccc3c2C(=O)C(O)=C(C)C3=O)O1`, the outcome was inactive.

For `CC1=C(O)C(=O)c2c(ccc3c2C=C[C@@](C)(CCCC(C)(C)O)O3)C1=O`, the result was inactive. To `CC(C)=CCC/C(C)=C/Cc1c(O)ccc2c1C(=O)C(O)=C(C)C2=O` belongs “inactive”; to `COC1=C(C)C(=O)c2ccc3c(c2C1=O)C=C[C@@](C)(CCCC(C)(C)O)O3`, “inactive”. To `COc1cc2c(cc1O)C(=O)C(C)=C(C)C2=O` belongs “inactive”.
